Measurements taken from US20090298813A1, “USE OF NEUROPROTECTIVE COMPOUNDS IN OBTAINING MEDICAMENTS INTENDED FOR THE TREATMENT OF NEURODEGENERATING DISEASES” (LES LABORATOIRES SERVIER, priority 2007, published 2009).

Columns and labels:
glial cells = assay: Protection from apoptosis caused in vitro in cultures of glial cells (OGD followed by reperfusion); format: cell-based, Sprague Dawley rats; conditions: 10 μM throughout OGD (3 h) and reperfusion (18 h); relative to control cultures subjected to OGD and reperfusion
Protocol: A study was carried out to determine if the compounds of the invention protect cultures of glial cells from the apoptosis brought about by oxygen and glucose deprivation (OGD) followed by reperfusion.
Glial cells are isolated from the brains of newborn Sprague Dawley rats and cultured. They are subjected to OGD for 3 hours by being placed in a glucose-free medium under anaerobic conditions in an incubator (5% CO2, 95% N2).
Reperfusion is carried out by returning the cultures for 18 hours to the normal medium [Dulbecco's modified Eagle […] (DMEM)], to which 10% fetal calf serum, 2 mM glutamine and 50 μg/ml of gentamicin have been added.
At the end of the OGD period, the adenosine triphosphate (ATP) content of the cultures is measured in order to assess the degree of ischaemia, using the BIOLUMINESCENT kit (luciferase luminescence).
The degree of apoptosis is quantified by counting the astrocyte nuclei labelled with the DNA-specific HOECHST 33258 fluorescent dye.
The compounds of the invention are added to the medium at a concentration of 10 μM throughout the OGD and reperfusion period.
The results are expressed as the percentage reduction in cell death relative to control cultures subjected to ischaemia by means of OGD and reperfusion.

newborn mice = assay: Protection from neurodegeneration caused by ibotenate in newborn mice; format: in vivo, mouse; conditions: 20 mg/kg i.p.; for Reduction in the size of lesions relative to the controls, cortex / Reduction in the size of lesions relative to the controls, white matter: simultaneous injection at 0 h
Protocol: Ibotenate, an agonist of N-methyl-D-aspartate (NMDA) receptors, when administered by the intracerebral route to the newborn mouse, brings about lesions of excitotoxic origin in the neocortex and the underlying white matter.
The ibotenate injection is performed in newborn mice aged 5 days (P5). The compounds of the invention are administered by the i.p. route at a dose of 20 mg/kg [either simultaneously] (P5), [or 8, 24 or 48 hours after induction of the lesions]. […] Cell markers were applied to the brain slices of animals sacrificed at various times after administration of ibotenate and the compound of the invention: (1) cleaved caspase-3, an apoptosis marker; (2) isolectin, a microglial activation marker; (3) glial fibrillary acidic protein (GFAP), a marker of astrogliosis.

[1] = test system: dopaminergic neurons of primary rat mesencephalic cultures; assay: Neuroprotective effects and stimulation of the catecholaminergic phenotype in vitro (spontaneous death of dopaminergic neurons); format: cell-based
Protocol: The study is carried out in an in vitro model of primary rat mesencephalic cultures, wherein death of the dopaminergic neurons develops spontaneously and selectively when the cells mature. The culture conditions have been defined in detail in various publications (Douhou et al., J. of Neurochemistry, (2001), 78, 163-174). The culture media are changed daily and, under these conditions, the dopaminergic neurons, but not the other neurons such as GABA-ergic neurons, degenerate spontaneously. Natural trophic factors of the body such as GDNF (glial cell derived neurotrophic factor) have shown a protective effect on the dopaminergic neurons in this model.
The effects of Examples 1 and 12 were tested at 3 concentrations. The effect is analysed by measuring the rate of tritiated dopamine uptake and the number of surviving neurons by labelling the tyrosine hydroxylase with a fluorescent antibody.

[2] = test system: mixed (neurons and glia) primary embryonic mesencephalic cultures; assay: Neuroprotective and neurotrophic effects in an in vitro model of neurodegeneration (epoxomicin); conditions: for increase in neuronal survival with respect to their control (neuroprotective): at 100 μM, in the presence of epoxomicin (50 nM), 48 hours
mouse striatum = assay: Glial reaction in a 6-OHDA model of Parkinson's disease in the mouse; format: in vivo; conditions: for reduction of the area occupied by the astrocytes (GFAP) in the striatum: single i.p. injection of 20 mg/kg 10 minutes after 6-OHDA, assessed at 7 days, relative to control group (6-OHDA and solvent); for microglial reactivity: single i.p. injection of 20 mg/kg
Protocol: Unilateral injection of 6-OHDA into the mouse striatum using a micro-syringe (0.5 μl of a solution containing 8 μg/μl) causes, from the 3rd day, degeneration of the TH-positive neurons of the striatum, which is accompanied, from the 7th day, by neuronal loss also in the substantia nigra, in accordance with that which is observed. in Parkinson's disease in humans.
The compounds of the invention are administered by the intraperitoneal route in a single injection of 20 mg/kg 10 minutes after the intracerebral injection of 6-OHDA. One group of mice is sacrificed at 3 days, the other at 7 days.

[3] = epoxomicin 50 nM, after 48 hours
[4] = deferred injection 8 h after ibotenate, sacrifice at 120 h
[5] = deferred injection 24 h after ibotenate, sacrifice at 120 h
[6] = deferred injection 48 h after ibotenate, sacrifice at 120 h

C=CCN1CCC[C@@H]2C(=O)N3c4ccccc4C[C@@H]3[C@H]21 (racemic) [Example 11, (4aSR,11aRS,11bSR)-1-Allyl-1,2,3,4,4a,11,11a,11b-octahydropyrido[2′,3′:3,4]pyrrolo-[1,2-a]indol-5-one]
Reduction in cell death, % reduction (glial cells): 44%

O=C(Nc1cccnc1)Nn1ccc2ccccc21 [Example 12, N-(1H-Indol-1-yl)-N′-(3-pyridyl)urea]
Reduction in the size of lesions relative to the controls, cortex (newborn mice; sacrifice at 120 h): 64%
Reduction in the size of lesions relative to the controls, white matter (newborn mice; sacrifice at 120 h): 58%
Reduction in cell death, % reduction (glial cells): 59%
cell survival (number of surviving neurons, tyrosine hydroxylase labelling) [1]: significantly increase
rate of tritiated dopamine uptake [1]: significantly increase

O=C(Nn1ccc2ccccc21)C1=CCCN(CCN2CCCCC2)C1 [Example 10, N-(Indol-1-yl)-1-(2-piperidin-1-yl-ethyl)-1,2,5,6-tetrahydropyridine-3-carboxamide]
Reduction in cell death, % reduction (glial cells): 60%

CN1CCN(CCN2CCC=C(C(=O)Nn3ccc4ccccc43)C2)CC1 [Example 9, N-(Indol-1-yl)-1-[2-(4-methylpiperazin-1-yl)ethyl]-1,2,5,6-tetrahydropyridine-3-carboxamide]
EC50 ([2]; Rattus norvegicus, Neuron, 48 h, read-out: EC50 (neurotrophic)): 10.5 µM
Reduction in the size of lesions relative to the controls, cortex (newborn mice; sacrifice at 120 h): 50%
Reduction in the size of lesions relative to the controls, white matter (newborn mice; sacrifice at 120 h): 56%
Reduction in cell death, % reduction (glial cells): 44%

CCOC(=O)C1=CCCN(CCN2CCC=C(C(=O)Nn3ccc4ccccc43)C2)C1 [Example 4, N-(Indol-1-yl)-1-[2-[3-(ethoxycarbonyl)-1,2,5,6-tetrahydropyridin-1-yl]ethyl]-1,2,5,6-tetrahydropyridine-3-carboxamide]
Reduction in cell death, % reduction (glial cells): 60%

CC[C@H](C)[C@H](NC(=O)[C@H]([C@@H](C)CC)N(C)C(C)=O)C(=O)N[C@H](C(=O)N[C@@H](CC(C)C)C(=O)[C@@]1(C)CO1)[C@@H](C)O [epoxomicin, reference compound]
loss over all of the cell population relative to the cells not treated with epoxomicin [2, 3]: less than 70%
neuronal loss relative to the untreated cells [2, 3]: 82%

O=C1NC(=O)N2c3ccccc3C3CCN4CCCC1C4C32 (single isomer, unassigned) [Example 8, (5aS,12aR,12bR,12cR)- or (5aR,12aS,12bS,12cS)-2,3,5a,12a,12b,12c-Hexahydro-1H,4H-3a,9b,11-triazabenzo[a]naphtho[2,1,8-cde]azulene-10,12(5H,11H)-dione (enantiomer ,β)]
increase in neuronal survival with respect to their control (neuroprotective) [2]: ~75%

CN1CCN(CCN2CCC=C(C(=O)Nn3ccc4cc(Cl)ccc43)C2)CC1 [Example 3, N-(5-Chloroindol-1-yl)-1-[2-(4-methylpiperazin-1-yl)ethyl]-1,2,5,6-tetrahydropyridine-3-carboxamide]
reduction of the area occupied by the astrocytes (GFAP) in the striatum (mouse striatum): 28%
microglial reactivity (mouse striatum; at 3 days): remains increased
microglial reactivity (mouse striatum; at 7 days): reduced
Reduction in the intensity of markers relative to the controls, Cleaved caspase-3 (apoptosis) (newborn mice; sacrifice at 24 h): 56%
Reduction in the intensity of markers relative to the controls, Isolectin (microglial activation) (newborn mice; sacrifice at 24 h): 50%
Reduction in the intensity of markers relative to the controls, GFAP (astrogliosis) (newborn mice; sacrifice at 120 h): 44%
Reduction in the size of lesions relative to the controls, cortex (newborn mice; sacrifice at 24 h): 53%
Reduction in the size of lesions relative to the controls, white matter (newborn mice; sacrifice at 24 h): 70%
Reduction in the size of lesions relative to the controls, cortex (newborn mice; sacrifice at 120 h): 50%
Reduction in the size of lesions relative to the controls, white matter (newborn mice; sacrifice at 120 h): 56%

O=C1NN2c3ccccc3C[C@H]2[C@@H]2NCCC[C@H]12 (racemic) [Example 6, (4aSR,11aSR,11bRS)-1,2,3,4,4a,11,11a,11b-Octahydro-1,6,6a-triaza-benzo[a]fluoren-5-one]
Reduction in cell death, % reduction (glial cells): 22%

O=C(Nc1cccnc1)NN1CCc2ccccc21 [Example 13, N-(2,3-Dihydro-1H-indol-1-yl)-N′-(3-pyridyl)urea]
increase in neuronal survival with respect to their control (neuroprotective) [2]: ~145%
Reduction in the size of lesions relative to the controls, cortex (newborn mice; sacrifice at 120 h): 28%
Reduction in the size of lesions relative to the controls, white matter (newborn mice; sacrifice at 120 h): 11%

Cl.O=C1NN2c3ccc(Cl)cc3C3CCN4CCCC1C4C32 (single isomer, unassigned; (+)) [Example 1, (+) (2RS,7SR),(3RS,16RS)-10-Chloro-15-oxo-2,7,14,15-tetrahydro-14-aza-20,21-dinoreburnameninium chloride]
reduction of the area occupied by the astrocytes (GFAP) in the striatum (mouse striatum): 13%
Reparatory effect: reduction in the size of lesions relative to the controls, cortex (newborn mice; [4]): 57%
Reparatory effect: reduction in the size of lesions relative to the controls, white matter (newborn mice; [4]): 59%
Reparatory effect: reduction in the size of lesions relative to the controls, cortex (newborn mice; [5]): 39%
Reparatory effect: reduction in the size of lesions relative to the controls, white matter (newborn mice; [5]): 61%
Reparatory effect: reduction in the size of lesions relative to the controls, cortex (newborn mice; [6]): 10%
Reparatory effect: reduction in the size of lesions relative to the controls, white matter (newborn mice; [6]): 26%
Reduction in the intensity of markers relative to the controls, GFAP (astrogliosis) (newborn mice; sacrifice at 8 h): 24%
Reduction in the intensity of markers relative to the controls, Isolectin (microglial activation) (newborn mice; sacrifice at 8 h): 39%
Reduction in the intensity of markers relative to the controls, Cleaved caspase-3 (apoptosis) (newborn mice; sacrifice at 24 h): 66%
Reduction in the intensity of markers relative to the controls, Isolectin (microglial activation) (newborn mice; sacrifice at 24 h): 39%
Reduction in the intensity of markers relative to the controls, Cleaved caspase-3 (apoptosis) (newborn mice; sacrifice at 48 h): 71%
Reduction in the intensity of markers relative to the controls, GFAP (astrogliosis) (newborn mice; sacrifice at 48 h): 25%
Reduction in the intensity of markers relative to the controls, Isolectin (microglial activation) (newborn mice; sacrifice at 48 h): 35%
Reduction in the intensity of markers relative to the controls, GFAP (astrogliosis) (newborn mice; sacrifice at 72 h): 31%
Reduction in the intensity of markers relative to the controls, Isolectin (microglial activation) (newborn mice; sacrifice at 72 h): 35%
Reduction in the intensity of markers relative to the controls, GFAP (astrogliosis) (newborn mice; sacrifice at 120 h): 39%
Reduction in the intensity of markers relative to the controls, Isolectin (microglial activation) (newborn mice; sacrifice at 120 h): 41%
Reduction in the size of lesions relative to the controls, cortex (newborn mice; sacrifice at 8 h): 39%
Reduction in the size of lesions relative to the controls, white matter (newborn mice; sacrifice at 8 h): 66%
Reduction in the size of lesions relative to the controls, cortex (newborn mice; sacrifice at 24 h): 40%
Reduction in the size of lesions relative to the controls, white matter (newborn mice; sacrifice at 24 h): 61%
Reduction in the size of lesions relative to the controls, cortex (newborn mice; sacrifice at 48 h): 44%
Reduction in the size of lesions relative to the controls, white matter (newborn mice; sacrifice at 48 h): 52%
Reduction in the size of lesions relative to the controls, cortex (newborn mice; sacrifice at 72 h): 52%
Reduction in the size of lesions relative to the controls, white matter (newborn mice; sacrifice at 72 h): 56%
Reduction in the size of lesions relative to the controls, cortex (newborn mice; sacrifice at 120 h): 46%
Reduction in the size of lesions relative to the controls, white matter (newborn mice; sacrifice at 120 h): 62%
Reduction in cell death, % reduction (glial cells): 70%
cell survival (number of surviving neurons, tyrosine hydroxylase labelling) [1]: significantly increase
rate of tritiated dopamine uptake [1]: significantly increase

O=C1NC(=O)N2c3ccccc3[C@@H]3CCN4CCC[C@@H]1[C@@H]4[C@@H]32 (single isomer, unassigned) [Example 7, (5aS,12aR,12bR,12cR)- or (5aR,12aS,12bS,12cS)-2,3,5a,12a,12b,12c-Hexahydro-1H,4H-3a,9b,11-triazabenzo[a]naphtho[2,1,8-cde]azulene-10,12(5H,11H)-dione (enantiomer α)]
Reduction in cell death, % reduction (glial cells): 35%
